These results are taken from US20040023972A1, “Use of substituted imidazo[1,2-a]-pyridin-, -pyrimidin-and-pyrazin-3-yl-amine derivatives in the preparation of medicaments for inhibiting NOS” (Gruenenthal GmbH, priority 2000, published 2004).

Molecules are shown by their SMILES.

The experiment concerns the target T1, NO synthase (Rattus norvegicus, UniProt P29476).
T1 construct: the supernatant was then removed by decantation and frozen in portions at −80° C; from tissue; host or cells: rat cerebellum, 20,000 g supernatant of homogenate
Kind of experiment: HTS-NOS assay (NOS assay): conversion of radioactive arginine, cation-exchanger filter plate. In kind it is biochemical. The conditions noted are these: for inhibition at 10 µM: read-out: HTS-NOS assay: % inhibition (10 μM). An outline of the steps:
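Percent inhibition was derived by comparing remaining radioactive arginine with compound-free controls. Arginine retained on phosphate cation-exchanger filters was counted after citrulline washout, following a 5-60 min room-temperature (25 °C) reaction of labelled arginine, NADPH-containing medium and rat cerebellar homogenate supernatant.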

For `C#[N+]CCCCCCN(C(C)=O)c1c(-c2ccccc2OC)nc2cc(C)cc(C)n12` [Example 240, (6-{acetyl-[2-(2-methoxy-phenyl)-5,7-dimethyl-imidazo[1,2-a]pyridin-3-yl]-amino}-hexyl)-methylidyne-ammonium], the “HTS-NOS assay: % inhibition (10 μM)” value turned out to be 61%.

Usually inhibition stands for how much of the control response was suppressed. For the compound `CCCCN(C(C)=O)c1c(-c2cccc(O)c2)nc2ncccn12` [Example 284, N-butyl-N-[2-(3-hydroxy-phenyl)-imidazo[1,2-a]pyrimidin-3-yl]-acetamide], the inhibition at 10 µM was 51%.

As for `CC(=O)N(c1c(-c2ccc(C)cc2)nc2cc(C)cc(C)n12)C(C)(C)CC(C)(C)C` [Example 162, N-(5,7-dimethyl-2-p-tolyl-imidazo[1,2-a]pyridin-3-yl)-N-(1,1,3,3-tetramethylbutyl)-acetamide], the inhibition at 10 µM is 67%.

In the case of `Cc1cc(C)n2c(Nc3c(C)cccc3C)c(-c3sccc3Br)nc2c1` [Example 42, [2-(3-Bromo-thiophen-2-yl)-5,7-dimethyl-imidazo[1,2-a]pyridin-3-yl]-(2,6-dimethyl-phenyl)-amine], the inhibition at 10 µM came out at 55%.

Take `COc1ccccc1-c1nc2cc(C)cc(C)n2c1N(C(C)=O)c1c(C)cccc1C` [Example 180, N-(2,6-dimethyl-phenyl)-N-[2-(2-methoxy-phenyl)-5,7-dimethyl-imidazo[1,2-a]-pyridin-3-yl]-acetamide]: the inhibition at 10 µM amounted to 54%.

Take `C#[N+]CCCCCCNc1c(C2CCCCC2)nc2cc(C)cc(C)n12` [Example 88, [6-(2-Cyclohexyl-5,7-dimethyl-imidazo[1,2-a]pyridin-3-ylamino)-hexyl]-methylidyne-ammonium]: the “HTS-NOS assay: % inhibition (10 μM)” value is reported as 57%.

Take `COc1cc(-c2nc3ncccn3c2N(C(C)=O)C2CCCCC2)ccc1OC(C)=O` [Example 270, acetic acid 4-[3-(acetyl-cyclohexyl-amino)-imidazo[1,2-a]pyrimidin-2-yl]-2-methoxy-phenyl ester]: the inhibition at 10 µM worked out at 52%.

Consider `CCCCNc1c(-c2ccc(C(=O)O)s2)nc2cnccn12` [Example 113, 5-(3-Butylamino-imidazo[1,2-a]pyrazin-2-yl)-thiophene-2-carboxylic acid], for which the inhibition at 10 µM is 54%.

As to `CCCCNc1c(-c2ccc(Cl)cc2Cl)nc2ccc(C)cn12` [Example 135, Butyl-[2-(2,4-dichloro-phenyl)-6-methyl-imidazo[1,2-a]pyridin-3-yl]-amine], the inhibition at 10 µM was 50%.

Take `CCCCN(C(C)=O)c1c(-c2ccccc2C)nc2ncccn12` [Example 206, N-butyl-N-(2-o-tolyl-imidazo[1,2-a]pyrimidin-3-yl)acetamide]: the inhibition at 10 µM came to 54%.

Regarding `Cc1cc(C)n2c(NC(C)(C)CC(C)(C)C)c(-c3ccc[nH]3)nc2c1` [Example 36, [5,7-Dimethyl-2-(1H-pyrrol-2-yl)-imidazo-[1,2-a]pyridin-3-yl]-(1,1,3,3-tetramethyl-butyl)-amine], the inhibition at 10 µM is 69%.

Take `Cc1cc(C)n2c(NC(C)(C)C)c(C)nc2c1` [Example 14, Tert-butyl-(2,5,7-trimethyl-imidazo[1,2-a]-pyridin-3-yl)-amine]: the inhibition at 10 µM is 67%.

Take `CCc1ccn2c(Nc3ccc(F)c(Cl)c3)c(-c3cc(C)c(C)o3)nc2c1` [Example 322, (3-Chloro-4-fluorophenyl)-[2-(4,5-dimethyl-furan-2-yl)-7-ethyl-imidazo[1,2-a]pyridin-3-yl]-amine]: the inhibition at 10 µM was determined as 49%.

As for `CC(=O)N(c1c(-c2cccnc2)nc2cc(C)cc(C)n12)C1CCCCC1` [Example 192, N-cyclohexyl-N-(5,7-dimethyl-2-pyridin-3-yl-imidazo[1,2-a]pyridin-3-yl)-acetamide], the inhibition at 10 µM was 72%.

Take `Cc1cc(C)n2c(NC(C)(C)CC(C)(C)C)c(-c3cccnc3)nc2c1` [Example 12, (5,7-Dimethyl-2-pyridin-3-yl-imidazo[1,2-a]-pyridin-3-yl)-(1,1,3,3-tetramethyl-butyl)-amine]: the inhibition at 10 µM stood at 61%.

Turning to `COC(=O)CN(C(C)=O)c1c(-c2ccccc2C)nc2ncccn12` [Example 285, [acetyl-(2-o-tolyl-imidazo[1,2-a]pyrimidin-3-yl)-amino]-acetic acid methyl ester], the inhibition at 10 µM was 51%.

`CC(=O)N(c1c(-c2c(F)cccc2Cl)nc2c(C)cc(Br)cn12)C1CCCCC1` [Example 253, N-[6-bromo-2-(2-chloro-6-fluoro-phenyl)-8-methyl-imidazo[1,2-a]pyridin-3-yl]-N-cyclohexyl-acetamide]: the inhibition at 10 µM stood at 51%.

With `Cc1ccn2c(NC(C)(C)CC(C)(C)C)c(-c3ccccc3C)nc2c1` [Example 46, (7-Methyl-2-o-tolyl-imidazo[1,2-a]pyridin-3-yl)-(1,1,3,3-tetramethyl-butyl)-amine], the inhibition at 10 µM was found to be 59%.

In the case of `Cc1cccc(C)c1Nc1c(-c2cccc(Cl)c2Cl)nc2c(C)cccn12` [Example 96, [2-(2,3-Dichlorophenyl)-8-methyl-imidazo[1,2-a]pyridin-3-yl]-(2,6-dimethyl-phenyl)-amine], the inhibition at 10 µM came to 55%.

As for `COC(=O)CN(C(C)=O)c1c(-c2cccc(O)c2)nc2ccc(C)cn12` [Example 244, {acetyl-[2-(3-hydroxy-phenyl)-6-methyl-imidazo[1,2-a]pyridin-3-yl]-amino}-acetic acid methyl ester], the inhibition at 10 µM stood at 50%.

With `Cc1cccn2c(NC(C)(C)CC(C)(C)C)c(-c3cccc(Cl)c3Cl)nc12` [Example 70, [2-(2,3-Dichlorophenyl)-8-methyl-imidazo[1,2-a]pyridin-3-yl]-(1,1,3,3-tetramethyl-butyl)-amine], the inhibition at 10 µM is 52%.

Regarding `Cc1cc(C)n2c(NC(C)(C)C)c(C3CCCCC3)nc2c1` [Example 22, Tert-butyl-(2-cyclohexyl-5,7-dimethyl-imidazo[1,2-a]pyridin-3-yl)-amine], the inhibition at 10 µM amounted to 68%.

For the compound `[C-]#[N+]CCCCCCNc1c(-c2ccc(-c3ccccc3Cl)o2)nc2cccc(C)n12` [Example 103, (6-{2-[5-(2-Chlorophenyl)-furan-2-yl]-5-methyl-imidazo[1,2-a]pyridin-3-ylamino)-hexyl)-methylidyne-ammonium], the “HTS-NOS assay: % inhibition (10 μM)” value is on record as 50%.

Turning to `Cc1ccc2nc(-c3cccnc3)c(NC(C)(C)C)n2c1` [Example 125, Tert-butyl-(6-methyl-2-pyridin-3-yl-imidazo[1,2-a]pyridin-3-yl)-amine], the inhibition at 10 µM is 51%.

For the compound `CC(=O)N(c1c(-c2ccccc2C(F)(F)F)nc2ccccn12)C(C)(C)C` [Example 245, N-tert-butyl-N-[2-(2-trifluorO-methyl-phenyl)-imidazo[1,2-a]pyridin-3-yl]-acetamide], the “HTS-NOS assay: % inhibition (10 μM)” value is listed as 56%.

In the case of `CCCCN(C(C)=O)c1c(-c2cccc(OC)c2OC)nc2cc(C)ccn12` [Example 226, N-butyl-N-[2-(2,3-dimethoxy-phenyl)-7-methyl-imidazo[1,2-a]pyridin-3-yl]-acetamide], the inhibition at 10 µM amounted to 62%.

For `CC(=O)N(c1c(C2CCCCC2)nc2cc(C)cc(C)n12)C(C)(C)C` [Example 157, N-tert-butyl-N-(2-cyclohexyl-5,7-dimethyl-imidazo[1,2-a]pyridin-3-yl)-acetamide], the inhibition at 10 µM came to 63%.

Regarding `Cc1ccn2c(NC(C)(C)C)c(C)nc2c1` [Example 94, Tert-butyl-(2,7-dimethyl-imidazo[1,2-a]-pyridin-3-yl)-amine], the inhibition at 10 µM is 65%.
